Numbers after ± are expanded uncertainties.
Conditions: Liquid, Ebulliometric method (Recirculating still)

Row | vapor or sublimation pressure (344.79 K) [kPa] | vapor or sublimation pressure (357.27 K) [kPa] | vapor or sublimation pressure (365.3 K) [kPa] | vapor or sublimation pressure (372.09 K) [kPa] | vapor or sublimation pressure (377.89 K) [kPa] | vapor or sublimation pressure (382.18 K) [kPa] | vapor or sublimation pressure (386.25 K) [kPa] | vapor or sublimation pressure (390.38 K) [kPa] | vapor or sublimation pressure (394.05 K) [kPa] | Compound | vapor or sublimation pressure (365.49 K) [kPa] | vapor or sublimation pressure (376.75 K) [kPa] | vapor or sublimation pressure (385.55 K) [kPa] | vapor or sublimation pressure (392.87 K) [kPa] | vapor or sublimation pressure (398.66 K) [kPa] | vapor or sublimation pressure (404.09 K) [kPa] | vapor or sublimation pressure (408.83 K) [kPa] | vapor or sublimation pressure (413.06 K) [kPa] | vapor or sublimation pressure (417.28 K) [kPa]
1 |  |  |  |  |  |  |  |  |  | Cc1ccccc1C [1,2-dimethylbenzene] | 20.4 ± 0.35 | 30.14 ± 0.35 | 40.2 ± 0.36 | 50.43 ± 0.37 | 60.03 ± 0.38 | 70.27 ± 0.4 | 80.41 ± 0.41 | 90.54 ± 0.43 | 101.85 ± 0.44
2 | 20.39 ± 0.35 | 32.09 ± 0.36 | 42.29 ± 0.37 | 52.61 ± 0.38 | 63.09 ± 0.39 | 71.89 ± 0.41 | 81.18 ± 0.42 | 91.67 ± 0.44 | 102.02 ± 0.45 | C1CCSC1 [tetrahydrothiophene] |  |  |  |  |  |  |  |  | 

Reference: the NIST ThermoML archive (doi:10.1016/j.fluid.2009.11.017)
